{"source": "patent US12649750B2", "about": "“Macrocyclic compounds, compositions, and methods of using thereof” (Sionna Therapeutics Inc., priority 2022, dated 2026)", "key": {"NBD1": {"biological_target": "T1, NBD1 (Homo sapiens, UniProt P13569)", "T1 construct": "Purified recombinant NBD1 was produced using previously described methods; made in house", "T1 sequence (P13569 423-646 limits assumed)": "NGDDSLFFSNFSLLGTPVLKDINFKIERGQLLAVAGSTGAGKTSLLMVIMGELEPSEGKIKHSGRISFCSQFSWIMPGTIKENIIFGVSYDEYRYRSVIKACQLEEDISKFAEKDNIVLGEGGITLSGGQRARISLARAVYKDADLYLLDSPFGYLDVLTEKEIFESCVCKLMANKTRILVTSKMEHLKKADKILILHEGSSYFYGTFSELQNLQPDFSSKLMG", "experiment": "Aggregation analysis using differential static light scattering (DSLS), thermal stability of NBD1 (ΔTagg)", "type": "binding", "settings": "ΔTagg versus DMSO control, NBD1 0.2 mg/ml", "outline": "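Purified recombinant NBD1 at 0.2 mg/ml in 50 mM Tris-HCl, 150 mM NaCl, 5 mM MgCl2, 2 mM ATP, 2 mM DTT, pH 7.6, 1% glycerol, with compound, heated 1° C./min to 70° C. under light-scattering monitoring. Tagg taken at curve inflection; ΔTagg is compound Tagg minus mean DMSO-control Tagg, binned A (≤5° C.), B (>5-≤10° C.), C (>10-≤25° C.).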"}, "CFTR": {"biological_target": "T2, CFTR (Homo sapiens, UniProt P13569, DEL508-508)", "T2 construct": "Primary human bronchial epithelial cells from a ΔF508 homozygous CF donor; host or cells: primary human bronchial epithelial cells (CF-HBE), ΔF508 homozygous donor", "T2 sequence (P13569 with tags, fused parts or gaps DEL508-508)": "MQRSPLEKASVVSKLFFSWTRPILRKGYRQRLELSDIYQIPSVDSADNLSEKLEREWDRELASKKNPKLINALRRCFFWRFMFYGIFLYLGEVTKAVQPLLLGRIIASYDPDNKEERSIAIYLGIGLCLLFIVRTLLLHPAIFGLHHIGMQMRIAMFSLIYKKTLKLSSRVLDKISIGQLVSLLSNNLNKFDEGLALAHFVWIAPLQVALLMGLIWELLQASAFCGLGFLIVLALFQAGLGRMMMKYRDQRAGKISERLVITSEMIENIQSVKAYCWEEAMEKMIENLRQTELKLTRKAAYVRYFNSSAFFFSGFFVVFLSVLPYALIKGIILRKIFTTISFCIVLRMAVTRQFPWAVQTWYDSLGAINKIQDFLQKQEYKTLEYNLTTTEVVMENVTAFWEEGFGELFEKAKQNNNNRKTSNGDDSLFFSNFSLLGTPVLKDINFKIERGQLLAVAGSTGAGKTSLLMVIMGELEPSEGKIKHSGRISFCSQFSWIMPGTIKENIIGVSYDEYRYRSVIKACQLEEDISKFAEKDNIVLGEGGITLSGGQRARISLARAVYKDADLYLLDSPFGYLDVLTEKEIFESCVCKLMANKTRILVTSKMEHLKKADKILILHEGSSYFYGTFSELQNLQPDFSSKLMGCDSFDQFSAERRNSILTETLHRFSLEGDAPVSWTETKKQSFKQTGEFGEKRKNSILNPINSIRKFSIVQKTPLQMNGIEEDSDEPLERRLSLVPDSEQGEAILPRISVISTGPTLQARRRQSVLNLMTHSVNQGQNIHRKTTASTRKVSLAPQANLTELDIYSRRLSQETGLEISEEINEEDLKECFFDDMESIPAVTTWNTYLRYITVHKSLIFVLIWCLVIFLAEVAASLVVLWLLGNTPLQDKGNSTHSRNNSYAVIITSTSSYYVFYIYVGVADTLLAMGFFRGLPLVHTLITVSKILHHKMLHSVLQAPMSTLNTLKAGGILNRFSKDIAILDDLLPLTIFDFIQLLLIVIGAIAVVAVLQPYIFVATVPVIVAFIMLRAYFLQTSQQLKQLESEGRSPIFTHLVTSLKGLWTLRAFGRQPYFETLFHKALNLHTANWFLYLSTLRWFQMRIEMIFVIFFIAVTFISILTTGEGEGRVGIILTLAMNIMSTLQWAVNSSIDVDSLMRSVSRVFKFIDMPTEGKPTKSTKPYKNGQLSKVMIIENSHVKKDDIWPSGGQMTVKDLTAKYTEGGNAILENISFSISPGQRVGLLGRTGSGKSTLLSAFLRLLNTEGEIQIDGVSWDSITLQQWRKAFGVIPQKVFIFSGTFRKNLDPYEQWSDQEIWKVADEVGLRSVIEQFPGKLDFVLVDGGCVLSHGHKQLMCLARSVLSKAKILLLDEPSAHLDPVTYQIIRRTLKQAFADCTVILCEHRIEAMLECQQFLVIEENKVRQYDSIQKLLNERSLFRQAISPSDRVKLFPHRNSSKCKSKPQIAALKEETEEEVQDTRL", "experiment": "TECC24 AUC fold over DMSO @10 μM, CFTR-mediated transepithelial chloride transport in CF-HBE cells", "type": "cell-based", "settings": "test agent AUC divided by DMSO vehicle AUC, primary CF-HBE cells, ΔF508 homozygous donor, 48 hours incubation", "outline": "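ΔF508-homozygous primary bronchial epithelial cells incubated 48 h at 36.5° C with compound (10 μM) in IL-13-containing medium, then TECC24 current-clamp recording in pH 7.4 Hepes saline with benzamil 10 μM, forskolin 10 μM, then CFTR inhibitor-172 20 μM. Equivalent Cl− current AUC between forskolin and inhibitor, expressed as fold over DMSO.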"}}, "data": [{"molecule": "CC(Cc1cccc(C2(C)CCOC(C)(C)CS(=O)(=O)CCc3c(c(F)cc4[nH]ccc34)Oc3ccc(F)c(c3)-c3nc2nn3C)c1)C(=O)O", "note": "(single isomer, unassigned) [Compound 28B, 3-[3-(22,28-difluoro-3,6,10,10-tetramethyl-12,12-dioxo-9,24-dioxa-12lambda6-thia-3,4,19,30-tetrazapentacyclo[23.3.1.12,5.015,23.016,20]triaconta-1(29),2(30),4,15,17,20,22,25,27-nonaen-6-yl)phenyl]-2-methyl-propanoic Acid]", "values": [{"measurement": "DSLS 3D (100 μM ΔT)", "setting": "NBD1", "result": "A (an ΔTagg value less than or equal to 5 °C is marked “A”)"}, {"measurement": "TECC (AUC, 10 μM)", "setting": "CFTR", "result": "B (a value between 12-20 is marked “B”)"}]}, {"molecule": "Cn1nc2nc1-c1cc(ccc1F)Oc1c(F)cc3[nH]ccc3c1CCS(=O)(=O)CC(C)(C)CCCC2(C)c1cccc(CC(C)(C)C(=O)O)c1", "note": "(single isomer, unassigned) [Compound 29A, 3-[3-(22,28-Difluoro-3,6,10,10-tetramethyl-12,12-dioxo-24-oxa-12lambda6-thia-3,4,19,30-tetrazapentacyclo[23.3.1.12,5.015,23.016,20]triaconta-1(29),2(30),4,15,17,20,22,25,27-nonaen-6-yl)phenyl]-2,2-dimethyl-propanoic acid]", "values": [{"measurement": "DSLS 3D (100 μM ΔT)", "setting": "NBD1", "result": "C (a value greater than 10 °C and less than or equal to 25 °C is marked “C”)"}, {"measurement": "TECC (AUC, 10 μM)", "setting": "CFTR", "result": "C (a value between 20 and 80 is marked “C”)"}]}, {"molecule": "Cn1nc2nc1-c1cc(ccc1F)Oc1c(F)cc3[nH]ccc3c1CCS(=O)(=O)CC(C)(C)CCCC2(C)c1cccc(CC(C)(C)C(=O)O)c1", "note": "(single isomer, unassigned) [Compound 29B, 3-[3-(22,28-Difluoro-3,6,10,10-tetramethyl-12,12-dioxo-24-oxa-12lambda6-thia-3,4,19,30-tetrazapentacyclo[23.3.1.12,5.015,23.016,20]triaconta-1(29),2(30),4,15,17,20,22,25,27-nonaen-6-yl)phenyl]-2,2-dimethyl-propanoic acid]", "values": [{"measurement": "DSLS 3D (100 μM ΔT)", "setting": "NBD1", "result": "A (an ΔTagg value less than or equal to 5 °C is marked “A”)"}, {"measurement": "TECC (AUC, 10 μM)", "setting": "CFTR", "result": "A (a TECC value less than 12 is marked “A”)"}]}, {"molecule": "Cn1nc2nc1-c1cc(ccc1F)C(O)c1c(F)cc3[nH]ccc3c1CCS(=O)(=O)CC(C)(C)CCCC2(C)c1cccc(CCC(=O)O)c1", "note": "(single isomer, unassigned) [Compound 30A, 3-[3-(22,28-difluoro-24-hydroxy-3,6,10,10-tetramethyl-12,12-dioxo-12lambda6-thia-3,4,19,30-tetrazapentacyclo[23.3.1.12,5.015,23.016,20]triaconta-1(29),2(30),4,15,17,20,22,25,27-nonaen-6-yl)phenyl]propanoic acid]", "values": [{"measurement": "DSLS 3D (100 μM ΔT)", "setting": "NBD1", "result": "C (a value greater than 10 °C and less than or equal to 25 °C is marked “C”)"}, {"measurement": "TECC (AUC, 10 μM)", "setting": "CFTR", "result": "C (a value between 20 and 80 is marked “C”)"}]}, {"molecule": "Cn1nc2nc1-c1cc(ccc1F)C(O)c1c(F)cc3[nH]ccc3c1CCS(=O)(=O)CC(C)(C)CCCC2(C)c1cccc(CCC(=O)O)c1", "note": "(single isomer, unassigned) [Compound 30B, 3-[3-(22,28-difluoro-24-hydroxy-3,6,10,10-tetramethyl-12,12-dioxo-12lambda6-thia-3,4,19,30-tetrazapentacyclo[23.3.1.12,5.015,23.016,20]triaconta-1(29),2(30),4,15,17,20,22,25,27-nonaen-6-yl)phenyl]propanoic acid]", "values": [{"measurement": "DSLS 3D (100 μM ΔT)", "setting": "NBD1", "result": "B (a value above 5 °C and less than or equal to 10 °C is marked “B”)"}, {"measurement": "TECC (AUC, 10 μM)", "setting": "CFTR", "result": "B (a value between 12-20 is marked “B”)"}]}, {"molecule": "Cn1nc2nc1-c1cc(ccc1F)C(O)c1c(F)cc3[nH]ccc3c1CCS(=O)(=O)CC(C)(C)CCCC2(C)c1cccc(CCC(=O)O)c1", "note": "(single isomer, unassigned) [Compound 30C, 3-[3-(22,28-difluoro-24-hydroxy-3,6,10,10-tetramethyl-12,12-dioxo-12lambda6-thia-3,4,19,30-tetrazapentacyclo[23.3.1.12,5.015,23.016,20]triaconta-1(29),2(30),4,15,17,20,22,25,27-nonaen-6-yl)phenyl]propanoic acid]", "values": [{"measurement": "DSLS 3D (100 μM ΔT)", "setting": "NBD1", "result": "B (a value above 5 °C and less than or equal to 10 °C is marked “B”)"}, {"measurement": "TECC (AUC, 10 μM)", "setting": "CFTR", "result": "C (a value between 20 and 80 is marked “C”)"}]}, {"molecule": "Cn1nc2nc1-c1cc(ccc1F)C(O)c1c(F)cc3[nH]ccc3c1CCS(=O)(=O)CC(C)(C)CCCC2(C)c1cccc(CCC(=O)O)c1", "note": "(single isomer, unassigned) [Compound 30D, 3-[3-(22,28-difluoro-24-hydroxy-3,6,10,10-tetramethyl-12,12-dioxo-12lambda6-thia-3,4,19,30-tetrazapentacyclo[23.3.1.12,5.015,23.016,20]triaconta-1(29),2(30),4,15,17,20,22,25,27-nonaen-6-yl)phenyl]propanoic acid]", "values": [{"measurement": "DSLS 3D (100 μM ΔT)", "setting": "NBD1", "result": "C (a value greater than 10 °C and less than or equal to 25 °C is marked “C”)"}, {"measurement": "TECC (AUC, 10 μM)", "setting": "CFTR", "result": "A (a TECC value less than 12 is marked “A”)"}]}, {"molecule": "COC(=O)CCc1cccc(C2(C)CCCC(C)(C)CS(=O)(=O)CCc3c(c(F)cc4[nH]ccc34)C(=O)c3ccc(F)c(c3)-c3nc2nn3C)c1", "note": "(single isomer, unassigned) [Compound 31A, methyl 3-[3-[22,28-difluoro-3,6,10,10-tetramethyl-12,12,24-trioxo-12lambda6-thia-3,4,19,30-tetrazapentacyclo[23.3.1.12,5.015,23.016,20]triaconta-1(29),2(30),4,15,17,20,22,25,27-nonaen-6-yl]phenyl]propanoate]", "values": [{"measurement": "DSLS 3D (100 μM ΔT)", "setting": "NBD1", "result": "B (a value above 5 °C and less than or equal to 10 °C is marked “B”)"}, {"measurement": "TECC (AUC, 10 μM)", "setting": "CFTR", "result": "C (a value between 20 and 80 is marked “C”)"}]}, {"molecule": "COC(=O)CCc1cccc(C2(C)CCCC(C)(C)CS(=O)(=O)CCc3c(c(F)cc4[nH]ccc34)C(=O)c3ccc(F)c(c3)-c3nc2nn3C)c1", "note": "(single isomer, unassigned) [Compound 31B, methyl 3-[3-[22,28-difluoro-3,6,10,10-tetramethyl-12,12,24-trioxo-12lambda6-thia-3,4,19,30-tetrazapentacyclo[23.3.1.12,5.015,23.016,20]triaconta-1(29),2(30),4,15,17,20,22,25,27-nonaen-6-yl]phenyl]propanoate]", "values": [{"measurement": "DSLS 3D (100 μM ΔT)", "setting": "NBD1", "result": "A (an ΔTagg value less than or equal to 5 °C is marked “A”)"}, {"measurement": "TECC (AUC, 10 μM)", "setting": "CFTR", "result": "B (a value between 12-20 is marked “B”)"}]}, {"molecule": "Cn1nc2nc1-c1cc(ccc1F)C(=O)c1c(F)cc3[nH]ccc3c1CCS(=O)(=O)CC(C)(C)CCCC2(C)c1cccc(CCC(=O)O)c1", "note": "(single isomer, unassigned) [Compound 31C, 3-[3-[22,28-difluoro-3,6,10,10-tetramethyl-12,12,24-trioxo-12lambda6-thia-3,4,19,30-tetrazapentacyclo[23.3.1.12,5.015,23.016,20]triaconta-1(29),2(30),4,15,17,20,22,25,27-nonaen-6-yl]phenyl]propanoic Acid]", "values": [{"measurement": "DSLS 3D (100 μM ΔT)", "setting": "NBD1", "result": "C (a value greater than 10 °C and less than or equal to 25 °C is marked “C”)"}, {"measurement": "TECC (AUC, 10 μM)", "setting": "CFTR", "result": "C (a value between 20 and 80 is marked “C”)"}]}, {"molecule": "Cn1nc2nc1-c1cc(ccc1F)C(=O)c1c(F)cc3[nH]ccc3c1CCS(=O)(=O)CC(C)(C)CCCC2(C)c1cccc(CCC(=O)O)c1", "note": "(single isomer, unassigned) [Compound 31D, 3-[3-[22,28-difluoro-3,6,10,10-tetramethyl-12,12,24-trioxo-12lambda6-thia-3,4,19,30-tetrazapentacyclo[23.3.1.12,5.015,23.016,20]triaconta-1(29),2(30),4,15,17,20,22,25,27-nonaen-6-yl]phenyl]propanoic acid]", "values": [{"measurement": "DSLS 3D (100 μM ΔT)", "setting": "NBD1", "result": "A (an ΔTagg value less than or equal to 5 °C is marked “A”)"}, {"measurement": "TECC (AUC, 10 μM)", "setting": "CFTR", "result": "C (a value between 20 and 80 is marked “C”)"}]}, {"molecule": "Cn1nc2nc1-c1cc(ccc1F)Cc1c(F)cc3[nH]ccc3c1CCS(=O)(=O)CC(C)(C)CCCC2(C)c1cccc(CCC(=O)O)c1", "note": "(single isomer, unassigned) [Compound 32A, 3-[3-(22,28-Difluoro-3,6,10,10-tetramethyl-12,12-dioxo-12lambda6-thia-3,4,19,30-tetrazapentacyclo[23.3.1.12,5.015,23.016,20]triaconta-1(29),2(30),4,15,17,20,22,25,27-nonaen-6-yl)phenyl]propanoic Acid]", "values": [{"measurement": "DSLS 3D (100 μM ΔT)", "setting": "NBD1", "result": "A (an ΔTagg value less than or equal to 5 °C is marked “A”)"}, {"measurement": "TECC (AUC, 10 μM)", "setting": "CFTR", "result": "A (a TECC value less than 12 is marked “A”)"}]}, {"molecule": "Cn1nc2nc1-c1cc(ccc1F)Cc1c(F)cc3[nH]ccc3c1CCS(=O)(=O)CC(C)(C)CCCC2(C)c1cccc(CCC(=O)O)c1", "note": "(single isomer, unassigned) [Compound 32B, 3-[3-(22,28-Difluoro-3,6,10,10-tetramethyl-12,12-dioxo-12lambda6-thia-3,4,19,30-tetrazapentacyclo[23.3.1.12,5.015,23.016,20]triaconta-1(29),2(30),4,15,17,20,22,25,27-nonaen-6-yl)phenyl]propanoic Acid]", "values": [{"measurement": "DSLS 3D (100 μM ΔT)", "setting": "NBD1", "result": "C (a value greater than 10 °C and less than or equal to 25 °C is marked “C”)"}, {"measurement": "TECC (AUC, 10 μM)", "setting": "CFTR", "result": "C (a value between 20 and 80 is marked “C”)"}]}]}
